One data set concerns fungi. Briefly: Antifungal activity of the amide form.
The nature of data set [1]: Severe test / accelerated test of luliconazole as the active ingredient. The format is physicochemical. The source says:
Further, it is considered that this amide form is produced by the addition of water with respect to a cyano group of the luliconazole. […] Namely, the presence of the amide form is speculated; however, the substance thereof has not been understood. Accordingly, it is difficult to speculate in the stage of manufacturing the pharmaceutical preparation that such a compound may be produced under a storage condition depending on the type of the solvent.
The severe condition herein refers to a storage condition at 60° C. for 3 weeks, and the accelerated condition herein refers to a storage condition at 40° C. for 6 months. The stability of a pharmaceutical preparation containing luliconazole has shown very good consistency between the severe condition and the accelerated condition. Accordingly, either of the conditions can be used. Further, the storage at 40° C. for 6 months is known as a condition substitutable for the condition at a room temperature for 3 years in an application for manufacturing approval of a pharmaceutical.
It is known that water is usually readily added to a cyano group by an acid or a base and the amide form is thereby produced. However, this generality is not applicable in the case of luliconazole, for the following reason. […]

For `NC(=O)/C(=C1/SC[C@@H](c2ccc(Cl)cc2Cl)S1)n1ccnc1` [amide form, [R-(E)]-α-[4-(2,4-dichlorophenyl)-1,3-dithiolan-2-ylidene]-1H-imidazole-1-acetamide], the Antifungal activity result with fungi was “low”.

Take `N#C/C(=C1/SC[C@@H](c2ccc(Cl)cc2Cl)S1)n1ccnc1` [luliconazole, Luliconazole]: the “Production of SE form and Z form” value in data set [1] (accelerated test and/or severe test) is given as “relatively readily produced”. The “Production of amide form from luliconazole active ingredient” value in data set [1] (severe test (60° C., 3 weeks) or accelerated test (40° C., 6 months) of the active ingredient) is “hardly produced”.

The values above are taken from US9085554B2, “Method of evaluating pharmaceutical preparation containing luliconazole and index substance” (POLA PHARMA INC., priority 2013, dated 2015).
